According to patent EP4541891A1, “NOVEL LRP1-BINDING PEPTIDE” (Ichimaru Pharcos Co., Ltd., priority 2022, dated 2025):
Bridge positions count the residues as written; N and C are the ends. Square brackets hold non-standard residues; d marks the D form. Ends that are not written are not given here. Peptide text beside a SMILES is read from it. * marks the point of attachment. 5FAM = O=C1OC2(c3ccc(O)cc3Oc3cc(O)ccc32)c2ccc(C(=O)*)cc21; Biotin = O=C1N[C@H]2[C@H](CS[C@H]2CCCCC(=O)*)N1; Nle = CCCC[C@H](N)C(=O)O

Tests used:
[1] = system: LRP1 cluster 4-Fc chimeric proteins; experiment: Competitive binding assay by ELISA against Sequence 46
Procedure: (§1) For comparison between the peptide of Sequence 1 with amino acid substitutions and the peptide of Sequence 2 in terms of the LRP1 binding activity and the resistance to protease degradation, a competitive binding assay by ELISA shown in FIG. 2 was constructed. Immediately (zero hour) or 24 hours after the mixing of the peptide of Sequence 2 or the amino acid-substituted peptide with mouse plasma at 37°C, the mixture was diluted to sufficiently lower the plasma concentration to any desired final concentration, and mixed with Sequence 46 (500 nM). This mixture was subjected to the competitive binding assay described above. The binding of Sequence 46 to the LRP1 cluster 4-Fc chimera proteins competes with the binding of Sequence 2 or the amino acid-substituted peptide to the LRP1 cluster 4-Fc chimera proteins, and thus is inhibited depending on the concentration of Sequence 2 or the amino acid-substituted peptide. That is, the binding activity of Sequence 2 or the amino acid-substituted peptide to the LRP1 cluster 4-Fc chimera proteins is detected as competitive inhibitory activity against the binding of Sequence 46. Regarding the binding value of Sequence 46 to the wells in which the LRP1 cluster 4-Fc chimeric proteins were not captured as 100% inhibitory activity and the binding value of Sequence 46 to the wells in which Sequence 2 or the amino acid-substituted peptide was not added as 0% inhibitory activity, the inhibitory activity values of Sequence 2 and the amino acid-substituted peptide were calculated in %.
Sequence 2 incubated with plasma for zero hour inhibited the binding of Sequence 46 in a concentration-dependent manner. […] However, the binding of Sequence 46 (500 nM) in wells loaded with 2,000 nM equivalent Sequence 2 averaged 50.6%.
Immediately or 24 hours after Sequences 1 to 44 were mixed with mouse plasma at 37°C, the mixtures were diluted to sufficiently lower the plasma concentration to a final concentration of 2,000 nM, and mixed with Sequence 46 (500 nM). The obtained mixtures were subjected to the above-described competitive binding assay. […] Other sequences tended to have diminished inhibitory activities.

[2] = Resistance to protease degradation in mouse plasma, read out by competitive binding ELISA; format: in vitro ADME; conditions: 37°C, inferred from loss of inhibitory activity
Procedure: as §1, with “The binding of Sequence 46 to the LRP1 cluster 4-Fc chimera proteins competes with the binding of Sequence 2 or the amino acid-substituted peptide to the LRP1 cluster 4-Fc chimera proteins, and thus is inhibited depending on the concentration of Sequence 2 or the amino acid-substituted peptide.” left out, “%. […]” for “%.”

[3] = system: LRP1 cluster 3-Fc chimeric proteins; experiment: ELISA binding test of biotin-labeled peptides; conditions: biotinylated peptide 1,000 nM to 1.4 nM
Procedure: (§2) To evaluate the binding activity of the peptides to LRP1, an ELISA-based binding assay was constructed. The ELISA method will be briefly described below. First, a goat antihuman IgG-Fcγ polyclonal antibody (Catalog No. 109-0005-008, manufactured by Jackson Immuno Research) was added to a 96-well Maxisorp plate (Catalog No. 439454, manufactured by Nunc) at 1 µg/50 µL/well using D-PBS, followed by coating overnight at 4°C. Then, 0.5% BSA/D-PBS was further added at 300 µL/well, and blocking was carried out at room temperature for 30 minutes. After washing the plate with 0.1% Tween 20/D-PBS, LRP1 recombinant proteins, namely, LRP1 cluster 2-Fc chimeric proteins (Catalog No. 2368-L2-050, manufactured by R & D Systems), LRP1 cluster 3-Fc chimeric proteins (Catalog No. 48248-L3-050, manufactured by R & D Systems), or LRP1 cluster 4-Fc chimeric proteins (Catalog No. 5395-L4-050, manufactured by R & D Systems), were added at 100 ng/50 µL/well using 0.5% BSA/D-PBS, and allowed to react with the coated antibodies at room temperature for 30 minutes. After washing the plate with 0.1% Tween 20/PBS, Sequences 45 and 46, which were biotinylated peptides, were prepared at an arbitrary concentration using 0.5% BSA/D-PBS, and added at 50µL/well. After causing a reaction at room temperature for 30 minutes, the plate was washed with 0.1% Tween 20/D-PBS. Sequences 45 and 46 bound to the LRP1 recombinant proteins captured on the plate were detected with SA-HRP (Catalog No. ab7403, manufactured by Abeam). For quantification of HRP, TMB ELISA Substrate Solution (Catalog No. 34028, manufactured by Thermo Fisher) was used to measure absorbance at 450 nm.

[4] = system: LRP1 cluster 2-Fc chimeric proteins; experiment: ELISA binding test of biotin-labeled peptides; conditions: biotinylated peptide 1,000 nM to 1.4 nM
Procedure: as §2

[5] = system: LRP1 cluster 4-Fc chimeric proteins; experiment: ELISA binding test of biotin-labeled peptides; conditions: for binding to the LRP1 cluster 4-Fc chimeric proteins: biotinylated peptide 1,000 nM to 1.4 nM; for EC50: biotinylated peptide, SA-HRP detection, absorbance at 450 nm, n = 4
Procedure: as §2

[6] = target: LRP1 cluster 4-Fc chimeric proteins (UniProt Q07954); experiment: competitive ELISA, LRP1 cluster 4-Fc captured; Sequence 2 at 2,000 nM equivalent after 24 h in mouse plasma at 37 C (about 75% degraded) against biotin-Sequence 46 500 nM
[7] = target: LRP1 cluster 4-Fc chimeric proteins (UniProt Q07954); experiment: competitive ELISA, LRP1 cluster 4-Fc captured; peptide 2,000 nM against biotin-Sequence 46 500 nM
[8] = target: LRP1 cluster 4-Fc chimeric proteins (UniProt Q07954); experiment: competitive ELISA, LRP1 cluster 4-Fc captured; Sequence 2 at 500 nM (zero hour in mouse plasma) against biotin-Sequence 46 500 nM

Sequence of UniProt Q07954 (Q07954 3293-3783, stated change not applied): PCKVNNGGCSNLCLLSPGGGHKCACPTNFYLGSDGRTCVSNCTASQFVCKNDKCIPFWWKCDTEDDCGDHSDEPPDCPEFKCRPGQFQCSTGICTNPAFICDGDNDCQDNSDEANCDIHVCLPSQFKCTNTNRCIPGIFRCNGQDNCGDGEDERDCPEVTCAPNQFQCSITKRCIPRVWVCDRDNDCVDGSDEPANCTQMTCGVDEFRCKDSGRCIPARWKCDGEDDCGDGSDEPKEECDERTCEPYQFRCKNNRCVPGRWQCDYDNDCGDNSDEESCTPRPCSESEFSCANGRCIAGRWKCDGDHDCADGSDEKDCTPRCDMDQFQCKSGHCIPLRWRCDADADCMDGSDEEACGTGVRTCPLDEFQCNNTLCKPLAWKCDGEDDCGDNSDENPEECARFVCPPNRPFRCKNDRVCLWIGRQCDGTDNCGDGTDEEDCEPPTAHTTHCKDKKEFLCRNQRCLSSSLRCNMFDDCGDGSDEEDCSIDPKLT

Row | Molecule | binding to the LRP1 cluster 3-Fc chimeric proteins [3] | binding to the LRP1 cluster 2-Fc chimeric proteins [4] | binding to the LRP1 cluster 4-Fc chimeric proteins [5] | EC50 [5] [nM] | other results
1 | CCCC[C@@H]1NC(=O)[C@H](CCC(=O)O)NC(=O)[C@H](C)NC(=O)[C@H](CC(C)C)NC(=O)[C@H](CCCC)NC(=O)[C@H](Cc2ccc(O)cc2)NC(=O)[C@H](CCCCN)NC(=O)[C@H](Cc2ccc(O)cc2)NC(=O)[C@H]([C@@H](C)O)NC(=O)[C@@H](NC(=O)[C@@H]2CCCN2C(=O)[C@@H](NC(=O)CNC(=O)[C@H](CCCCNC(=O)c2ccc3c(c2)C(=O)OC32c3ccc(O)cc3Oc3cc(O)ccc32)NC(C)=O)[C@@H](C)O)CSSC[C@@H](C(=O)O)NC1=O [Sequence 2, Ac-Lys(5FAM)-Gly-Thr-Pro-c(Cys-Thr-Tyr-Lys-Tyr-Nle-Leu-Ala-Glu-Nle-Cys)-OH] (Ac-K(5FAM)GTPCTYKY[Nle]LAE[Nle]C-OH; disulfide 5-15) |  |  |  |  | inhibitory activity ([1]; peptide 2,000 nM versus Sequence 46 (500 nM), time point not stated): 79.4%; binding of Sequence 46 (500nM) ([1]; wells loaded with 2,000 nM equivalent Sequence 2, incubated with mouse plasma for 24 hours at 37°C, average): 50.6%; binding of Sequence 46 (500nM) ([1]; wells with 500 nM Sequence 2, incubated with mouse plasma for zero hour, n = 4, average): 52.4%; degraded during the 24-hour incubation with the mouse plasma [2]: approximately 75%
2 | CCCC[C@@H]1NC(=O)[C@H](CCC(=O)O)NC(=O)[C@H](C)NC(=O)[C@H](CC(C)C)NC(=O)[C@H](CCCC)NC(=O)[C@H](Cc2ccc(O)cc2)NC(=O)[C@H](CCCCN)NC(=O)[C@H](Cc2ccc(O)cc2)NC(=O)[C@H]([C@@H](C)O)NC(=O)[C@@H](NC(=O)[C@@H]2CCCN2C(=O)[C@@H](NC(=O)CNC(=O)[C@H](CCCCNC(=O)CCCC[C@@H]2SC[C@@H]3NC(=O)N[C@@H]32)NC(C)=O)[C@@H](C)O)CSSC[C@@H](C(=O)O)NC1=O [Sequence 46, Ac-Lys(Biotin)-Gly-Thr-Pro-c(Cys-Thr-Tyr-Lys-Tyr-Nle-Leu-Ala-Glu-Nle-Cys)-OH] (Ac-K(Biotin)GTPCTYKY[Nle]LAE[Nle]C-OH; disulfide 5-15) | little or no binding | little or no binding | selectively and in a peptide concentration-dependent manner | 11 | 
3 | Ac-K(Biotin)GTPCTYKY[Nle]LAE[Nle]C-OH (cysteine pairing not given here) [Sequence 45] | little or no binding | little or no binding | selectively and in a peptide concentration-dependent manner | 10.5 | 
4 | Ac-K(5FAM)GTPCTYKY[Nle]LAE[Nle]C (disulfide 5-15) [SEQUENCE 2] |  |  |  |  | binding of Sequence 46 (%) in the presence of the peptide [6]: 50.6%; inhibitory activity (%) [7]: 79.4%; binding of Sequence 46 (%) in the presence of the peptide [8]: 52.4%
